According to patent US20200347043A1, “MODULATORS OF THE INTEGRATED STRESS PATHWAY” (Calico Life Sciences LLC, priority 2019, published 2020):

tested on: HEK293T cells carrying the ATF4 luciferase reporter; experiment: ATF4-Luc assay (in vitro model of VWMD); assay type: cell-based, human; conditions: Homo sapiens, HEK-293T, 1 μg/mL tunicamycin, 7 hours, One Glo luminescence
Summary of the method: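 Stable HEK293T line expressing firefly luciferase behind the human ATF4 5′-UTR, treated with 1 μg/mL tunicamycin plus compound for 7 hours. Luminescence read with One Glo; EC50 determined.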

SMILES	EC50 [nM]
O=C(NC12CC(c3cc(-c4ccc(Cl)cc4)no3)(C1)C2)[C@@H]1C[C@@H](O)c2cc(Cl)ccc2O1 [Compound 247, (2S,4R)-6-chloro-N-{3-[3-(4-chlorophenyl)-1,2-oxazol-5-yl]bicyclo[1.1.1]pentan-1-yl}-4-hydroxy-3,4-dihydro-2H-1-benzopyran-2-carboxamide]	50 to 250
O=C(NC12CC(c3cc(-c4ccc(Cl)c(F)c4)no3)(C1)C2)[C@H]1C[C@@H](O)c2cc(Cl)ccc2O1 [Compound 248, (2R,4R)-6-chloro-N-{3-[3-(4-chloro-3-fluorophenyl)-1,2-oxazol-5-yl]bicyclo[1.1.1]pentan-1-yl}-4-hydroxy-3,4-dihydro-2H-1-benzopyran-2-carboxamide]	10 to 50
O=C(NC12CC(c3cc(-c4ccc(Cl)c(F)c4)no3)(C1)C2)[C@@H]1C[C@@H](O)c2cc(Cl)ccc2O1 [Compound 249, (2S,4R)-6-chloro-N-{3-[3-(4-chloro-3-fluorophenyl)-1,2-oxazol-5-yl]bicyclo[11.11]pentan-1-yl}-4-hydroxy-3,4-dihydro-2H-1-benzopyran-2-carboxamide]	50 to 250
O=C(NC12CC(c3cc(-c4ccc(C(F)(F)F)nc4)no3)(C1)C2)[C@H]1C[C@@H](O)c2cc(Cl)ccc2O1 [Compound 250, (2R,4R)-6-chloro-4-hydroxy-N-(3-{3-[6-(trifluoromethyl)pyridin-3-yl]-1,2-oxazol-5-yl}bicyclo[1.1.1]pentan-1-yl)-3,4-dihydro-2H-1-benzopyran-2-carboxamide]	50 to 250
O=C(NC12CC(c3cc(-c4ccc(C(F)(F)F)nc4)no3)(C1)C2)[C@@H]1C[C@@H](O)c2cc(Cl)ccc2O1 [Compound 251, (2S,4R)-6-chloro-4-hydroxy-N-(3-{3-[6-(trifluoromethyl)pyridin-3-yl]-1,2-oxazol-5-yl}bicyclo[1.1.1]pentan-1-yl)-3,4-dihydro-2H-1-benzopyran-2-carboxamide]	> 2000
O=C(NC12CC(c3ncc(-c4ccc(Cl)cc4)o3)(C1)C2)[C@H]1C[C@@H](O)c2cc(Cl)ccc2O1 [Compound 254, (2R,4R)-6-chloro-N-{3-[5-(4-chlorophenyl)-1,3-oxazol-2-yl]bicyclo[1.1.1]pentan-1-yl}-4-hydroxy-3,4-dihydro-2H-1-benzopyran-2-carboxamide]	< 10
O=C(NC12CC(c3ncc(-c4ccc(Cl)cc4)o3)(C1)C2)[C@@H]1C[C@@H](O)c2cc(Cl)ccc2O1 [Compound 255, (2S,4R)-6-chloro-N-{3-[5-(4-chlorophenyl)-1,3-oxazol-2-yl]bicyclo[1.1.1]pentan-1-yl}-4-hydroxy-3,4-dihydro-2H-1-benzopyran-2-carboxamide]	10 to 50
O=C(NC12CC(c3cc(-c4ccc(Cl)cc4)on3)(C1)C2)[C@H]1C[C@@H](O)c2cc(Cl)ccc2O1 [Compound 256, (2R,4R)-6-chloro-N-{3-[5-(4-chlorophenyl)-1,2-oxazol-3-yl]bicyclo[1.1.1]pentan-1-yl}-4-hydroxy-3,4-dihydro-2H-1-benzopyran-2-carboxamide]	< 10
O=C(NC12CC(c3cc(-c4ccc(Cl)cc4)on3)(C1)C2)[C@@H]1C[C@@H](O)c2cc(Cl)ccc2O1 [Compound 257, (2S,4R)-6-chloro-N-{3-[5-(4-chlorophenyl)-1,2-oxazol-3-yl]bicyclo[1.1.1]pentan-1-yl}-4-hydroxy-3,4-dihydro-2H-1-benzopyran-2-carboxamide]	50 to 250
O=C(NC12CC(c3cc(-c4ccc(Cl)c(F)c4)on3)(C1)C2)[C@H]1C[C@@H](O)c2cc(Cl)ccc2O1 [Compound 258, (2R,4R)-6-chloro-N-{3-[5-(4-chloro-3-fluorophenyl)-1,2-oxazol-3-yl]bicyclo[1.1.1]pentan-1-yl}-4-hydroxy-3,4-dihydro-2H-1-benzopyran-2-carboxamide]	< 10
O=C(NC12CC(c3cc(-c4ccc(Cl)c(F)c4)on3)(C1)C2)[C@@H]1C[C@@H](O)c2cc(Cl)ccc2O1 [Compound 259, (2S,4R)-6-chloro-N-{3-[5-(4-chloro-3-fluorophenyl)-1,2-oxazol-3-yl]bicyclo[11.11]pentan-1-yl}-4-hydroxy-3,4-dihydro-2H-1-benzopyran-2-carboxamide]	10 to 50
O=C(NC12CC(c3cc(-c4ccc(C(F)(F)F)nc4)on3)(C1)C2)[C@H]1C[C@@H](O)c2cc(Cl)ccc2O1 [Compound 260, (2R,4R)-6-chloro-4-hydroxy-N-(3-{5-[6-(trifluoromethyl)pyridin-3-yl]-1,2-oxazol-3-yl}bicyclo[1.1.1]pentan-1-yl)-3,4-dihydro-2H-1-benzopyran-2-carboxamide]	10 to 50
O=C(NC12CC(c3cc(-c4ccc(C(F)(F)F)nc4)on3)(C1)C2)[C@@H]1C[C@@H](O)c2cc(Cl)ccc2O1 [Compound 261, (2S,4R)-6-chloro-4-hydroxy-N-(3-{5-[6-(trifluoromethyl)pyridin-3-yl]-1,2-oxazol-3-yl}bicyclo[1.1.1]pentan-1-yl)-3,4-dihydro-2H-1-benzopyran-2-carboxamide]	50 to 250
O=C(NC12CC(c3cnn(-c4ccc(C(F)(F)F)nc4)c3)(C1)C2)[C@H]1C[C@@H](O)c2cc(Cl)ccc2O1 [Compound 262, (2R,4R)-6-chloro-4-hydroxy-N-(3-{1-[6-(trifluoromethyl)pyridin-3-yl]-1H-pyrazol-4-yl}bicyclo[1.1.1]pentan-1-yl)-3,4-dihydro-2H-1-benzopyran-2-carboxamide]	< 10
O=C(NC12CC(c3cnn(-c4ccc(C(F)(F)F)nc4)c3)(C1)C2)[C@@H]1C[C@@H](O)c2cc(Cl)ccc2O1 [Compound 263, (2S,4R)-6-chloro-4-hydroxy-N-(3-{1-[6-(trifluoromethyl)pyridin-3-yl]-1H-pyrazol-4-yl}bicyclo[1.1.1]pentan-1-yl)-3,4-dihydro-2H-1-benzopyran-2-carboxamide]	10 to 50
O=C(NC12CC(c3cnn(-c4ccc(Cl)cc4)c3)(C1)C2)[C@H]1C[C@@H](O)c2cc(Cl)ccc2O1 [Compound 264, (2R,4R)-6-chloro-N-{3-[1-(4-chlorophenyl)-1H-pyrazol-4-yl]bicyclo[1.1.1]pentan-1-yl}-4-hydroxy-3,4-dihydro-2H-1-benzopyran-2-carboxamide]	< 10
O=C(NC12CC(c3cnn(-c4ccc(Cl)cc4)c3)(C1)C2)[C@@H]1C[C@@H](O)c2cc(Cl)ccc2O1 [Compound 265, (2S,4R)-6-chloro-N-{3-[1-(4-chlorophenyl)-1H-pyrazol-4-yl]bicyclo[1.1.1]pentan-1-yl}-4-hydroxy-3,4-dihydro-2H-1-benzopyran-2-carboxamide]	10 to 50
O=C(NC12CC(c3cc([C@H]4C[C@@H](OC(F)(F)F)C4)no3)(C1)C2)[C@H]1C[C@@H](O)c2cc(Cl)ccc2O1 [Compound 266, (2R,4R)-6-chloro-4-hydroxy-N-(3-{3-[cis-3-(trifluoromethoxy)cyclobutyl]-1,2-oxazol-5-yl}bicyclo[1.1.1]pentan-1-yl)-3,4-dihydro-2H-1-benzopyran-2-carboxamide]	10 to 50
O=C(NC12CC(N3CC([C@H]4C[C@@H](OC(F)(F)F)C4)OC3=O)(C1)C2)[C@H]1C[C@@H](O)c2cc(Cl)ccc2O1 (stereo partly drawn) [Compound 267, (2R,4R)-6-chloro-4-hydroxy-N-(3-{2-oxo-5-[cis-3-(trifluoromethoxy)cyclobutyl]-1,3-oxazolidin-3-yl}bicyclo[1.1.1]pentan-1-yl)-3,4-dihydro-2H-1-benzopyran-2-carboxamide]	50 to 250
O=C(NC12CC(c3cc([C@H]4C[C@@H](OC(F)(F)F)C4)no3)(C1)C2)[C@@H]1C[C@@H](O)c2cc(Cl)ccc2O1 [Compound 268, (2S,4R)-6-chloro-4-hydroxy-N-(3-{3-[cis-3-(trifluoromethoxy)cyclobutyl]-1,2-oxazol-5-yl}bicyclo[1.1.1]pentan-1-yl)-3,4-dihydro-2H-1-benzopyran-2-carboxamide]	50 to 250
O=C(NC12CC(N3CC([C@H]4C[C@@H](OC(F)(F)F)C4)OC3=O)(C1)C2)[C@@H]1C[C@@H](O)c2cc(Cl)ccc2O1 (stereo partly drawn) [Compound 269, (2S,4R)-6-chloro-4-hydroxy-N-(3-{2-oxo-5-[cis-3-(trifluoromethoxy)cyclobutyl]-1,3-oxazolidin-3-yl}bicyclo[1.1.1]pentan-1-yl)-3,4-dihydro-2H-1-benzopyran-2-carboxamide]	250 to 500
O=C(NC12CC(c3ncc(-c4ccc(Cl)c(F)c4)o3)(C1)C2)[C@H]1C[C@@H](O)c2cc(Cl)ccc2O1 [Compound 270, (2R,4R)-6-chloro-N-{3-[5-(4-chloro-3-fluorophenyl)-1,3-oxazol-2-yl]bicyclo[1.1.1]pentan-1-yl}-4-hydroxy-3,4-dihydro-2H-1-benzopyran-2-carboxamide]	< 10
O=C(NC12CC(c3ncc(-c4ccc(Cl)c(F)c4)o3)(C1)C2)[C@@H]1C[C@@H](O)c2cc(Cl)ccc2O1 [Compound 271, (2S,4R)-6-chloro-N-{3-[5-(4-chloro-3-fluorophenyl)-1,3-oxazol-2-yl]bicyclo[1.1.1]pentan-1-yl}-4-hydroxy-3,4-dihydro-2H-1-benzopyran-2-carboxamide]	10 to 50
O=C(NC12CC(c3csc(-c4ccc(Cl)cc4)n3)(C1)C2)[C@H]1C[C@@H](O)c2cc(Cl)ccc2O1 [Compound 272, (2R,4R)-6-chloro-N-{3-[2-(4-chlorophenyl)-1,3-thiazol-4-yl]bicyclo[1.1.1]pentan-1-yl}-4-hydroxy-3,4-dihydro-2H-1-benzopyran-2-carboxamide]	10 to 50
O=C(NC12CC(c3csc(-c4ccc(Cl)cc4)n3)(C1)C2)[C@@H]1C[C@@H](O)c2cc(Cl)ccc2O1 [Compound 273, (2S,4R)-6-chloro-N-{3-[2-(4-chlorophenyl)-1,3-thiazol-4-yl]bicyclo[11.11]pentan-1-yl}-4-hydroxy-3,4-dihydro-2H-1-benzopyran-2-carboxamide]	50 to 250
Cc1nc(C23CC(NC(=O)[C@H]4C[C@@H](O)c5cc(Cl)ccc5O4)(C2)C3)oc1-c1ccc(Cl)cc1 [Compound 274, (2R,4R)-6-chloro-N-{3-[5-(4-chlorophenyl)-4-methyl-1,3-oxazol-2-yl]bicyclo[1.1.1]pentan-1-yl}-4-hydroxy-3,4-dihydro-2H-1-benzopyran-2-carboxamide]	10 to 50
